The values below come from patent publication US9351818B2, “Process for the synchronization of ovulation for timed breeding without heat detection” (priority 2003, dated 2016).

One experiment has as its system postpartum sows. Description: Single timed deslorelin injection 96 hours post-weaning with single timed insemination, no estrus detection (Example 3). The note with it: 50 mcg in SAIB at 96 hours post-weaning; single insemination 28+/-2 hours later. It is filed as in vivo, swine. On the procedure:
Approximately 170 postpartum sows were randomly divided into two equal groups comprised of controls and treated. Following weaning, the controls were detected for estrus and bred following the normal standard operating procedures for the farms on which they resided. The treated sows received a 50 mcg dose of deslorelin in SAIB at 96 hours post-weaning and were bred with a single insemination 28+/−2 hours later with no regard to estrus detection. The sows were examined for pregnancy by ultrasound at 21 days and slaughtered around 28 days post breeding. The entire reproductive tract was removed and corpora lutea and embryos were counted.

Another experiment has as its system mature postpartum sows. Description: Intravulvar deslorelin at estrus detection with AI in mature postpartum sows (Example 2). It is filed as in vivo, swine. The note with it: 50 μg deslorelin acetate intravulvar at first estrus detection, then AI again if in estrus the next day. On the procedure: Sows were assigned randomly in blocks of two to either control or to be injected intravulvar with 50 mcg of deslorelin in SAIB at the time of estrus detection for sows first detected in estrus in the a.m. and 12 hours later for those first detected in estrus in the p.m. Treated animals were bred AI upon detected estrus and again 24 hours later if still in estrus. Controls received a saline injection on first detected estrus behavior estrus detection and were bred according to the farm's normal procedures.

As for `CCNC(=O)[C@@H]1CCCN1C(=O)[C@H](CCCN=C(N)N)NC(=O)[C@H](CC(C)C)NC(=O)[C@@H](Cc1c[nH]c2ccccc12)NC(=O)[C@H](Cc1ccc(O)cc1)NC(=O)[C@H](CO)NC(=O)[C@H](Cc1c[nH]c2ccccc12)NC(=O)[C@H](Cc1cnc[nH]1)NC(=O)[C@@H]1CCC(=O)N1` [Deslorelin, deslorelin], the “Embryo Survival” value in the experiment with postpartum sows is 64%. The “Pregnancy Rate” value in the experiment with mature postpartum sows was determined as 91%.
